Reference: ChEMBL document CHEMBL5518248, “Design, Synthesis, and Biological Evaluation of Novel Arylomycins against Multidrug-Resistant Gram-Negative Bacteria” (J Med Chem, 2024)

How the values were obtained:
Escherichia coli [1] = test: Antibacterial activity against Escherichia coli ATCC 35218 assessed as inhibition of bacterial growth measured after 18 to 20 hrs by broth microdilution method; format: functional; details: time 18-20 hrs
Escherichia coli [2] = test: Antibacterial activity against Escherichia coli 14-2 assessed as inhibition of bacterial growth measured after 18 to 20 hrs by broth microdilution method; format: functional; details: time 18-20 hrs
Escherichia coli [3] = test: Antibacterial activity against Escherichia coli 14-4 assessed as inhibition of bacterial growth measured after 18 to 20 hrs by broth microdilution method; format: functional; details: time 18-20 hrs
Klebsiella pneumoniae [4] = test: Antibacterial activity against Klebsiella pneumoniae 15-1 assessed as inhibition of bacterial growth measured after 18 to 20 hrs by broth microdilution method; format: functional; details: time 18-20 hrs
Klebsiella pneumoniae [5] = test: Antibacterial activity against Klebsiella pneumoniae 15-4 assessed as inhibition of bacterial growth measured after 18 to 20 hrs by broth microdilution method; format: functional; details: time 18-20 hrs
Klebsiella pneumoniae [6] = test: Antibacterial activity against Klebsiella pneumoniae 15-5 assessed as inhibition of bacterial growth measured after 18 to 20 hrs by broth microdilution method; format: functional; details: time 18-20 hrs
Acinetobacter baumannii [7] = test: Antibacterial activity against Acinetobacter baumannii 17-2 assessed as inhibition of bacterial growth measured after 18 to 20 hrs by broth microdilution method; format: functional; details: time 18-20 hrs
Acinetobacter baumannii [8] = test: Antibacterial activity against Acinetobacter baumannii 17-8 assessed as inhibition of bacterial growth measured after 18 to 20 hrs by broth microdilution method; format: functional; details: time 18-20 hrs
Pseudomonas aeruginosa [9] = test: Antibacterial activity against Pseudomonas aeruginosa 17-1 assessed as inhibition of bacterial growth measured after 18 to 20 hrs by broth microdilution method; format: functional; details: time 18-20 hrs
Pseudomonas aeruginosa [10] = test: Antibacterial activity against Pseudomonas aeruginosa 19-5 assessed as inhibition of bacterial growth measured after 18 to 20 hrs by broth microdilution method; format: functional; details: time 18-20 hrs
HepG2 [11] = test: Cytotoxicity against human HepG2 cells assessed as inhibition of cell growth incubated for 24 hrs by CCK8 method; format: functional, cell-based; details: HepG2, 24 h
HepG2 [12] = test: Cytotoxicity against human HepG2 cells assessed as inhibition of cell growth at 100 uM incubated for 24 hrs by CCK8 method relative to control; format: functional
[13] = Cytotoxicity against HEK293T cells assessed as inhibition of cell growth incubated for 24 hrs by CCK8 method; format: toxicity, cell-based, HEK-293T; details: human
[14] = Cytotoxicity against HEK293T cells assessed as inhibition of cell growth at 100 uM incubated for 24 hrs by CCK8 method relative to control; format: toxicity, cell-based, HEK-293T; details: human
Jurkat [15] = test: Cytotoxicity against human Jurkat cells assessed as inhibition of cell growth incubated for 24 hrs by CCK8 method; format: functional, cell-based
Jurkat [16] = test: Cytotoxicity against human Jurkat cells assessed as inhibition of cell growth at 100 uM incubated for 24 hrs by CCK8 method relative to control; format: functional

Structure (SMILES)	MIC (Escherichia coli [1]) [µg/mL]	MIC (Escherichia coli [2]) [µg/mL]	MIC (Escherichia coli [3]) [µg/mL]	MIC (Klebsiella pneumoniae [4]) [µg/mL]	MIC (Klebsiella pneumoniae [5]) [µg/mL]	MIC (Klebsiella pneumoniae [6]) [µg/mL]	MIC (Acinetobacter baumannii [7]) [µg/mL]	MIC (Acinetobacter baumannii [8]) [µg/mL]	MIC (Pseudomonas aeruginosa [9]) [µg/mL]	MIC (Pseudomonas aeruginosa [10]) [µg/mL]	IC50 (HepG2 [11]) [µM]	inhibition at 100 µM (HepG2 [12]) [%]	IC50 at 24 h [13] [µM]	inhibition at 24 h, 100 µM [14] [%]	IC50 (Jurkat [15]) [µM]	inhibition at 100 µM (Jurkat [16]) [%]
CSSCc1ccc(-c2ncc(C(=O)N[C@@H](CCN)C(=O)N(C)[C@@H]3C(=O)N[C@@H](C)C(=O)N[C@H](C(=O)NCC#N)Cc4ccc(OCCN)c(c4)-c4cc3ccc4OCCN)c(C)n2)cc1.O=C(O)C(F)(F)F.O=C(O)C(F)(F)F.O=C(O)C(F)(F)F.O=C(O)C(F)(F)F	0.06	0.25	0.5	0.25	0.5	0.5	4	1	64	64						
Cc1nc(-c2ccc(C(C)(C)C)cc2)ncc1C(=O)C(=O)N[C@@H](CCN)C(=O)N(C)[C@@H]1C(=O)N[C@@H](C)C(=O)N[C@H](C(=O)NCC#N)Cc2ccc(OCCN)c(c2)-c2cc1ccc2OCCN.O=C(O)C(F)(F)F.O=C(O)C(F)(F)F.O=C(O)C(F)(F)F.O=C(O)C(F)(F)F	2	2	2	8	16	8	4	1	32	64						
Cc1nc(C2=CCC3(CC2)CC3)ncc1C(=O)N[C@@H](CCN)C(=O)N(C)[C@@H]1C(=O)N[C@@H](C)C(=O)N[C@H](C(=O)NCC#N)Cc2ccc(OCCN)c(c2)-c2cc1ccc2OCCN.O=C(O)C(F)(F)F.O=C(O)C(F)(F)F.O=C(O)C(F)(F)F.O=C(O)C(F)(F)F	0.125	0.25	0.25	0.25	0.25	1	16	4	> 64	> 64						
Cc1nc(-c2ccc(CSSC3CCC3)cc2)ncc1C(=O)N[C@@H](CCN)C(=O)N(C)[C@@H]1C(=O)N[C@@H](C)C(=O)N[C@H](C(=O)NCC#N)Cc2ccc(OCCN)c(c2)-c2cc1ccc2OCCN.O=C(O)C(F)(F)F.O=C(O)C(F)(F)F.O=C(O)C(F)(F)F.O=C(O)C(F)(F)F	≤ 0.03	0.125	0.125	0.125	0.25	0.25	1	0.5	8	4						
CCSSCc1ccc(-c2ncc(C(=O)N[C@@H](CCN)C(=O)N(C)[C@@H]3C(=O)N[C@@H](C)C(=O)N[C@H](C(=O)NCC#N)Cc4ccc(OCCN)c(c4)-c4cc3ccc4OCCN)c(C)n2)cc1.O=C(O)C(F)(F)F.O=C(O)C(F)(F)F.O=C(O)C(F)(F)F.O=C(O)C(F)(F)F	≤ 0.03	0.06	≤ 0.03	0.06	0.125	0.125	1	0.5	8	16						
Cc1nc(-c2ccc(CSSC(C)C)cc2)ncc1C(=O)N[C@@H](CCN)C(=O)N(C)[C@@H]1C(=O)N[C@@H](C)C(=O)N[C@H](C(=O)NCC#N)Cc2ccc(OCCN)c(c2)-c2cc1ccc2OCCN.O=C(O)C(F)(F)F.O=C(O)C(F)(F)F.O=C(O)C(F)(F)F.O=C(O)C(F)(F)F	≤ 0.03	0.06	0.06	0.06	0.125	0.06	0.5	0.125	2	4						
C=CC(=O)N[C@@H]1Cc2ccc(OCCN)c(c2)-c2cc(ccc2OCCN)[C@H](N(C)C(=O)[C@H](CCN)NC(=O)c2cnc(-c3ccc(C(C)(C)C)cc3)nc2C)C(=O)N[C@@H](C)C(=O)N1.O=C(O)C(F)(F)F.O=C(O)C(F)(F)F.O=C(O)C(F)(F)F.O=C(O)C(F)(F)F	64	64	64	32	64	32	> 64	64	> 64	> 64						
Cc1nc(C2CCC3(CC2)CC3)ncc1C(=O)N[C@@H](CCN)C(=O)N(C)[C@@H]1C(=O)N[C@@H](C)C(=O)N[C@H](C(=O)NCC#N)Cc2ccc(OCCN)c(c2)-c2cc1ccc2OCCN.O=C(O)C(F)(F)F.O=C(O)C(F)(F)F.O=C(O)C(F)(F)F.O=C(O)C(F)(F)F	1	2	1	2	4	2	64	8	> 64	> 64						

The next lines start with results.

MIC (Escherichia coli [1]) [µg/mL]	MIC (Escherichia coli [2]) [µg/mL]	MIC (Escherichia coli [3]) [µg/mL]	MIC (Klebsiella pneumoniae [4]) [µg/mL]	MIC (Klebsiella pneumoniae [5]) [µg/mL]	MIC (Klebsiella pneumoniae [6]) [µg/mL]	MIC (Acinetobacter baumannii [7]) [µg/mL]	MIC (Acinetobacter baumannii [8]) [µg/mL]	MIC (Pseudomonas aeruginosa [9]) [µg/mL]	MIC (Pseudomonas aeruginosa [10]) [µg/mL]	Structure (SMILES)	IC50 (HepG2 [11]) [µM]	inhibition at 100 µM (HepG2 [12]) [%]	IC50 at 24 h [13] [µM]	inhibition at 24 h, 100 µM [14] [%]	IC50 (Jurkat [15]) [µM]	inhibition at 100 µM (Jurkat [16]) [%]
≤ 0.03	≤ 0.03	≤ 0.03	≤ 0.03	0.06	≤ 0.03	0.25	0.125	4	8	CCCSSCc1ccc(-c2ncc(C(=O)N[C@@H](CCN)C(=O)N(C)[C@@H]3C(=O)N[C@@H](C)C(=O)N[C@H](C(=O)NCC#N)Cc4ccc(OCCN)c(c4)-c4cc3ccc4OCCN)c(C)n2)cc1.O=C(O)C(F)(F)F.O=C(O)C(F)(F)F.O=C(O)C(F)(F)F.O=C(O)C(F)(F)F	> 100	-3.61	> 100	29.9	> 100	32.5
≤ 0.03	≤ 0.03	≤ 0.03	≤ 0.03	0.06	0.06	0.5	0.125	4	4	Cc1nc(-c2ccc(CSSCC(C)C)cc2)ncc1C(=O)N[C@@H](CCN)C(=O)N(C)[C@@H]1C(=O)N[C@@H](C)C(=O)N[C@H](C(=O)NCC#N)Cc2ccc(OCCN)c(c2)-c2cc1ccc2OCCN.O=C(O)C(F)(F)F.O=C(O)C(F)(F)F.O=C(O)C(F)(F)F.O=C(O)C(F)(F)F	> 100	-4.7	> 100	42.7	> 100	18.4
≤ 0.03	≤ 0.03	≤ 0.03	≤ 0.03	0.125	0.06	1	0.5	4	4	CCCSSc1ccc(-c2ncc(C(=O)N[C@@H](CCN)C(=O)N(C)[C@@H]3C(=O)N[C@@H](C)C(=O)N[C@H](C(=O)NCC#N)Cc4ccc(OCCN)c(c4)-c4cc3ccc4OCCN)c(C)n2)cc1.O=C(O)C(F)(F)F.O=C(O)C(F)(F)F.O=C(O)C(F)(F)F.O=C(O)C(F)(F)F	> 100	-6.72	> 100	30.6	> 100	42.4
≤ 0.03	≤ 0.03	≤ 0.03	≤ 0.03	≤ 0.03	≤ 0.03	0.25	0.5	4	4	Cc1nc(-c2ccc(SSC(C)(C)C)cc2)ncc1C(=O)N[C@@H](CCN)C(=O)N(C)[C@@H]1C(=O)N[C@@H](C)C(=O)N[C@H](C(=O)NCC#N)Cc2ccc(OCCN)c(c2)-c2cc1ccc2OCCN.O=C(O)C(F)(F)F.O=C(O)C(F)(F)F.O=C(O)C(F)(F)F.O=C(O)C(F)(F)F	> 100	-1.65	> 100	51.5	> 100	38.2
≤ 0.03	0.125	0.06	0.06	0.125	0.125	0.5	0.25	16	2	CSSC1(c2ccc(-c3ncc(C(=O)N[C@@H](CCN)C(=O)N(C)[C@@H]4C(=O)N[C@@H](C)C(=O)N[C@H](C(=O)NCC#N)Cc5ccc(OCCN)c(c5)-c5cc4ccc5OCCN)c(C)n3)cc2)CCC1.O=C(O)C(F)(F)F.O=C(O)C(F)(F)F.O=C(O)C(F)(F)F.O=C(O)C(F)(F)F						
≤ 0.03	0.125	0.06	0.125	0.25	0.25	1	1	4	4	Cc1cc(-c2ncc(C(=O)N[C@@H](CCN)C(=O)N(C)[C@@H]3C(=O)N[C@@H](C)C(=O)N[C@H](C(=O)NCC#N)Cc4ccc(OCCN)c(c4)-c4cc3ccc4OCCN)c(C)n2)ccc1CSSC(C)(C)C.O=C(O)C(F)(F)F.O=C(O)C(F)(F)F.O=C(O)C(F)(F)F.O=C(O)C(F)(F)F						
≤ 0.03	0.06	0.06	0.125	0.125	0.125	0.5	0.5	4	4	Cc1nc(-c2ccc(CSSC(C)(C)C)cc2)nc(C)c1C(=O)N[C@@H](CCN)C(=O)N(C)[C@@H]1C(=O)N[C@@H](C)C(=O)N[C@H](C(=O)NCC#N)Cc2ccc(OCCN)c(c2)-c2cc1ccc2OCCN.O=C(O)C(F)(F)F.O=C(O)C(F)(F)F.O=C(O)C(F)(F)F.O=C(O)C(F)(F)F						
